Experimental data from patent EP0312291A2, “Di-or tripeptide renin inhibitors containing lactam conformational restriction in ACHPA” (Merck & Co., Inc., priority 1987, dated 1989).

target: T1, human plasma renin (Homo sapiens, UniProt P00797); assay: Inhibition of human plasma renin, in vitro method of Boger et al., J. Med. Chem. (1985) 28, 1779; type: biochemical
T1 construct: from tissue; host or cells: human plasma
T1 sequence (P00797 67-406): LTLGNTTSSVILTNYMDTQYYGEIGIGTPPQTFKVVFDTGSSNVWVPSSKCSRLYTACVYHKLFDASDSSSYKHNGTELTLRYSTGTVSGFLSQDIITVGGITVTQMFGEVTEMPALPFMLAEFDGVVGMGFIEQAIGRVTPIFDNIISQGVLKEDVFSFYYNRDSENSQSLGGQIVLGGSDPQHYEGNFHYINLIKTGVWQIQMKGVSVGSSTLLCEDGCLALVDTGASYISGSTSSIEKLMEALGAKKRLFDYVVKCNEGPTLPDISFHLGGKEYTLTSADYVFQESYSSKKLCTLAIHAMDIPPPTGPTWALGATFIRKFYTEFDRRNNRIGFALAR
Procedure: Inhibition of human plasma renin was assayed using the in vitro method described by Boger, et. al., J. Med. Chem. (1985) 28, 1779.

| IC50 | Compound |
| --- | --- |
| 203 nM | CN1CCCC[C@@H]([C@H](O)[C@H](CC2CCCCC2)NC(=O)[C@H](Cc2c[nH]cn2)NC(=O)[C@H](Cc2ccccc2)NC(=O)OC(C)(C)C)C1=O [Example 3C, Boc-Phe-His-(ACHP)-1-Methylcaprolactam] |
| 31 nM | Boc-Phe-His-(ACHP)-4-Methyl-3-Morpholinone [Example 3B] |
| 47 nM | CN1CCC[C@@H]([C@H](O)[C@H](CC2CCCCC2)NC(=O)[C@H](Cc2c[nH]cn2)NC(=O)[C@H](Cc2ccccc2)NC(=O)OC(C)(C)C)C1=O [Example 3A, Boc-Phe-His-(ACHP)-1-Methyl-2-Piperidinone] |
